Entries after “also recorded” stand apart in the source; their conditions may differ.
Assays:
[1] = target: T1, fibrin clots formed from purified human fibrinogen and human α thrombin (Homo sapiens, UniProt P02671+P02675+P02679); test: Fibrin clot turbidity (A405), purified fibrinogen clotted with thrombin in microplates; type: biochemical; conditions: for polyP concentration exerting maximal effect on turbidity: 2.6 mg/mL citrate-free fibrinogen, 1 nM thrombin (FIG. 8)
T1 construct: purchased Enzyme Research Laboratories (South Bend, Ind.)
T1 sequence (P02671 20-644 isoform P02671-2 limits assumed): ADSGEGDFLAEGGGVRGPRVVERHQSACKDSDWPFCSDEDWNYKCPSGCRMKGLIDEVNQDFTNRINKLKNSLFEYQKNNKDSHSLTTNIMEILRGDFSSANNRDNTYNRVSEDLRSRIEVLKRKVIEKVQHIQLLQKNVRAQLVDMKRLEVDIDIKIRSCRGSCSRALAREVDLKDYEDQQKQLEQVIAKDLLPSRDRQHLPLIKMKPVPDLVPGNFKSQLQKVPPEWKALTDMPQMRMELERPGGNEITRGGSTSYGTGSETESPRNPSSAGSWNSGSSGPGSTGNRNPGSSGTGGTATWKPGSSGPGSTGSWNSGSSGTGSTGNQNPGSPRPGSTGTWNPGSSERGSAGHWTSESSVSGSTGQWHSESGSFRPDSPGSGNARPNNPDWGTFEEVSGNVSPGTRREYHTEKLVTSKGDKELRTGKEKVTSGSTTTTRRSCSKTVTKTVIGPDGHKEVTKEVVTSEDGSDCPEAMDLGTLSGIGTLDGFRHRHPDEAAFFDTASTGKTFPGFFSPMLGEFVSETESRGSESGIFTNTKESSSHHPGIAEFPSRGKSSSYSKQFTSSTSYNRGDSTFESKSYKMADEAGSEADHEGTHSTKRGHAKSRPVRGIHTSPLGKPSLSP
T1 sequence (P02675 31-491): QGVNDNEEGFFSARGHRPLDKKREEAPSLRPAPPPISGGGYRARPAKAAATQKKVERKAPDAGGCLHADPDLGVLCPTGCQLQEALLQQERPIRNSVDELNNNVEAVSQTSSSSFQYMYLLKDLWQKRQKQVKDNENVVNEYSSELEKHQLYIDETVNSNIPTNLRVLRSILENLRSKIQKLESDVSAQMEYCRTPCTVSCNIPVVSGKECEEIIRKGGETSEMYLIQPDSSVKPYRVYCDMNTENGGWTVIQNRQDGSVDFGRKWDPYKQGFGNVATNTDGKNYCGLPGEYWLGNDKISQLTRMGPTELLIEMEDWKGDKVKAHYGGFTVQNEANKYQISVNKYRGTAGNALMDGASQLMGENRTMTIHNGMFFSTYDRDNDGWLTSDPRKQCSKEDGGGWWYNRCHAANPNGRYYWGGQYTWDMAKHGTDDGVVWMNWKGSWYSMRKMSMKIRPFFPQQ
T1 sequence (P02679 27-437 isoform P02679-2 limits assumed): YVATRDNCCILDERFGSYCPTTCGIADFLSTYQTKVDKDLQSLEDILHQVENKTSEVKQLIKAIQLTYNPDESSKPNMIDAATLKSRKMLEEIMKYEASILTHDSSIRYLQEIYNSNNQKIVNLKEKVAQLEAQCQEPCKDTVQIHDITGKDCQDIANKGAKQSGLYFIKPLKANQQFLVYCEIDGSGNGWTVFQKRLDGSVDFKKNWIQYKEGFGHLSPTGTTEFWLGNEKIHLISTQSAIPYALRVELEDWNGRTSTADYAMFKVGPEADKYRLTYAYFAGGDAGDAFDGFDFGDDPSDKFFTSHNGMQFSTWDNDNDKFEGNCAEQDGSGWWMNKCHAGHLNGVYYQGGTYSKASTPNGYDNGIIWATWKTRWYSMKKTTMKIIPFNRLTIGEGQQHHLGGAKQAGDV
Procedure: The in vitro studies reported here utilize a microplate-based method to evaluate the formation of fibrin clots, which are prepared by mixing together purified fibrinogen and thrombin. Once fibrinogen is cleaved to fibrin, the fibrin monomers spontaneously polymerize to yield a three-dimensional gel, or clot. These fibrin polymers scatter visible light, resulting in increased turbidity which can monitored spectrophotometrically to detect clotting.
Fibrin clots were formed in 96-well polystyrene microplates (Corning Inc., Corning, N.Y.) by first preincubating fibrinogen with polyP in TBS plus the indicated CaCl2 concentrations. (Preincubations of fibrinogen with calcium ions were for 15 minutes unless otherwise stated.) Thrombin in TBS plus the same concentration of CaCl2 was then added to trigger clot formation. Reactant concentrations were typically 2.6 mg/mL fibrinogen, 62.5 pM to 8 nM thrombin, 0 to 8 mM polyP, and 0 to 5 mM CaCl2 in a total volume of 200 μL. In some studies, 0 to 10 U/mL unfractionated heparin or 1 mM iodoacetamide were also included. Clotting was evaluated by monitoring the change in turbidity (A405) for varying times (typically, 1 hour) at room temperature using a Spectramax microplate reader (Molecular Devices Corporation, Sunnyvale, Calif.). […] Final turbidities (A405) of fibrin clots were typically quantified after the clots had matured for 60 minutes.

[2] = target: T2, fibrin clots / human plasmin (Homo sapiens, UniProt P02671+P02675+P02679); test: Fibrinolysis of fibrin clots by plasmin; type: biochemical; conditions: 1 mM polyP, 1 mg/mL fibrinogen, 2.5 mM CaCl2, 8 nM plasmin, 1 nM thrombin; clots without polyP lysed quickly
T2 construct: purchased Enzyme Research Laboratories (South Bend, Ind.)
T2 sequence (P02671 20-644 isoform P02671-2 limits assumed): T1 sequence (P02671 20-644 isoform P02671-2 limits assumed)
T2 sequence (P02675 31-491): T1 sequence (P02675 31-491)
T2 sequence (P02679 27-437 isoform P02679-2 limits assumed): T1 sequence (P02679 27-437 isoform P02679-2 limits assumed)
Procedure: FIG. 6 is a graph of the time course of fibrinolysis of fibrin clots. Fibrinogen (1 mg/mL) was preincubated for 15 minutes in the presence of 2.5 mM CaCl2 with 1 mM polyP (▾) or without polyP (O), after which 8 nM plasmin was added followed immediately by 1 nM thrombin. Fibrin clots were allowed to form for 30 minutes, after which their turbidities were measured. The data are plotted as A405 values normalized to the initial A405 value for each curve.
In these experiments, clots were formed by mixing purified human fibrinogen, human plasmin, and human thrombin in the presence of calcium ions, with or without polyP. Clot lysis was quantified by measuring the decrease in optical density over time (following a 30 minute initial clot formation). […] (FIG. 6)

[3] = target: T3, fibrin cross-linking by factor XIIIa (Homo sapiens, UniProt P02671+P02675+P02679); test: Fibrin cross-link formation (SDS-PAGE); type: biochemical; conditions: 37° C., data not shown
T3 construct: changing the rate or extent of fibrin cross-linking by factor XIIIa; purchased Enzyme Research Laboratories (South Bend, Ind.)
T3 sequence (P02671 20-644 isoform P02671-2 limits assumed): T1 sequence (P02671 20-644 isoform P02671-2 limits assumed)
T3 sequence (P02675 31-491): T1 sequence (P02675 31-491)
T3 sequence (P02679 27-437 isoform P02679-2 limits assumed): T1 sequence (P02679 27-437 isoform P02679-2 limits assumed)
Procedure: Rates of a and y cross-link formation were studied in clotting reactions carried out as described for turbidity measurements using purified fibrinogen, except that fibrin clots were formed in polypropylene tubes at 37° C. and reactions were stopped at various times by adding an equal volume of 2×SDS sample buffer (100 mM Tris-HCl, 1 mM dithiothreitol, 4% sodium dodecyl sulfate (SDS), 0.02% bromophenol blue, 20% glycerol, pH 6.8) with immediate boiling at 95° C. for 5 minutes. Samples (10 μL) were then subjected to SDS-PAGE using 7.5% polyacrylamide gels and stained with Gelcode (Pierce, Rockford, Ill.) according to the manufacturer's directions.

human plasma = conditions: previous studies [20]; cited from earlier work
fibrin fibrils [4] = target: T4, fibrin fibrils (Homo sapiens, UniProt P02671+P02675+P02679); test: Scanning electron microscopy of fibrin clots (fibril thickness); type: biochemical; conditions: 2.6 mg/mL fibrinogen, 2.5 mM CaCl2, 3 nM thrombin, without polyP 26.5±0.7 nm
T4 construct: purchased Enzyme Research Laboratories (South Bend, Ind.)
T4 sequence (P02671 20-644 isoform P02671-2 limits assumed): T1 sequence (P02671 20-644 isoform P02671-2 limits assumed)
T4 sequence (P02675 31-491): T1 sequence (P02675 31-491)
T4 sequence (P02679 27-437 isoform P02679-2 limits assumed): T1 sequence (P02679 27-437 isoform P02679-2 limits assumed)
Procedure: Fibrin clots formed as described above for turbidity measurements were allowed to mature for 2 hours after thrombin addition. Clots were washed 4 times in 0.1 M cacodylate, fixed in Karnovsky's gluteraldehyde solution overnight, and then processed by stepwise ethanol gradient, critical point drying, and sputter coating with gold palladium. Clots were observed and photographed in six different representative areas using a scanning electron microscope.

spleen surface wounds = test: Porcine splenic trauma model of surgical bleeding; type: in vivo, pig
Procedure: In preliminary experiments, the ability of polyP to enhance the performance of a fibrin sealant composed of purified fibrinogen and thrombin was evaluated. The fibrinogen component of the experimental fibrin sealant was pre-mixed with calcium ions and polyP, while control fibrinogen preparations were pre-mixed with calcium ions without polyP. Shallow surface wounds were then made on the surface of the spleen of anesthetized pigs, after which 0.3 mL each of the fibrinogen and thrombin solutions were applied to the wound surface and allowed to react with each other. Including polyP in the fibrinogen solution shortened the time to cessation of bleeding in this model: 9.8±1.0 minutes with polyP, but 12.3±1.0 minutes without polyP (mean±SEM). Adding polyP to the fibrinogen solution also changed the appearance of fibrin clots formed on the wound surfaces.
Young adult pigs weighing 20-35 kg were anesthetized using intramuscular teletamine/zolazepam/glycopyrolate, followed by intubation and maintenance with inhaled isoflurane. A ventral midline laparotomy was performed and the spleen was externalized. Shallow (approximately 1 mm deep) oval surface wounds measuring approximately 3×5 mm were made using a Metzenbaum scissors. […] Time to cessation of bleeding was assessed visually. […]

fibrin fibrils [5] = target: T4, fibrin fibrils; test: Fibril size determination (relative mass-length ratio from wavelength scan); type: biochemical; conditions: 1 mM polyP; 2.6 mg/mL fibrinogen, 3 nM thrombin, 2.5 mM calcium ions
Excerpt: Previous studies of fibrin clot structure have shown that the final optical density of fibrin clots is primarily a function of the thickness of the fibrils formed. It is possible to estimate the mass-length ratios of fibrin fibrils by measuring the optical density of clots at a series of wavelengths of light, using a suitable mathematical analysis of the data. Such analyses of fibrin clots were made by mixing fibrinogen and thrombin in the presence of calcium ions and varying concentrations of polyP, in order to determine the effect of polyP on the mass-length ratio of the fibrils (FIG. 5(A)). […] When fibrin clots formed in the presence of calcium ions and varying polyP concentrations were visualized using scanning electron microscopy, the fibrin fibrils had increased thickness as the polyP concentration increased (FIGS. 5(C-E)).
Relative fibril mass to length ratios were determined using a modification of the method of Carr and Gabriel for clots with high turbidity. Briefly, fibrin clots were allowed to mature for 2 hours after thrombin addition, after which the absorbance was scanned from 400 to 800 nm on a Spectramax microplate reader. A plot of 1/τ*λ^3(y axis) versus 1/λ^2 (x axis) was used to determine the y intercept, the inverse of which is proportional to the mass-length ratio of the fibers. […]

[6] = target: T1, fibrin clots formed from purified human fibrinogen and human α thrombin; test: Fibrin clot turbidity (A405), purified fibrinogen clotted with thrombin in microplates; type: biochemical; conditions: up to 20 U/mL unfractionated heparin, 500 μM polyP

NC(=O)CI [iodoacetamide, reference compound]
effect of iodoacetamide on the enhancement of final clot turbidity by polyP ([1]; transglutaminase inhibitor added to clotting mixtures, data not shown): failed to antagonize the enhancement of final clot turbidity by polyP

Polyphosphate
resistance of clots to fibrinolysis [2]: highly resistant to lysis by plasmin | rate of formation of cross-linked fibrin chains [3]: appeared to be the same with or without polyP; also recorded: failed to identify any impact of polyP | effect on clotting time of human plasma (human plasma): shortens the clotting time of human plasma | effect on clotting time when thrombin was added to plasma (human plasma): did not shorten clotting times | mean fibril thickness (±standard error) (fibrin fibrils [4]; 100 μM polyP): 33.6±1.0 nm | mean fibril thickness (±standard error) (fibrin fibrils [4]; 500 μM polyP): 54.2±1.3 nm | mean fibril thickness (±standard error) (fibrin fibrils [4]; 1 mM polyP): 73.4±1.5 nm | polyP concentration exerting maximal effect on turbidity ([1]; 2 mM Ca2+): 1 mM | polyP concentration exerting maximal effect on turbidity ([1]; 2.5 mM Ca2+): 1 to 2 mM | polyP concentration exerting maximal effect on turbidity ([1]; 3 mM Ca2+): 2 to 4 mM | polyP concentration exerting maximal effect on turbidity ([1]; 5 mM Ca2+): 3 to 8 mM | polyP concentration giving optimal enhancement of final clot turbidity ([1]; expressed as phosphate monomer, 2.6 mg/mL fibrinogen, 8 nM thrombin, 2.5 mM calcium chloride (FIG. 3)): approximately 1 mM | effect on turbidity of fibrin clots ([1]; in the absence of Ca2+): did not increase the turbidity of fibrin clots | effect on final clot turbidity ([1]; mM Ca2+ present, regardless of the amount of thrombin added): markedly increased final clot turbidity | effect on fibrin clot turbidity with added factor XIIIa ([1]; preactivated factor XIIIa added to the clotting mixtures, data not shown): still increased fibrin clot turbidity | effect on thrombin clotting time ([1]; purified fibrinogen plus thrombin): lack of effect | enhancement of final clot turbidity with factor XIIIa inhibitor ([1]; with or without 1 mM iodoacetamide, data not shown): approximately equally well in the presence or absence of iodoacetamide | time to cessation of bleeding (mean±SEM) (spleen surface wounds; fibrin sealant, polyP in the fibrinogen solution, 0.3 mL each of fibrinogen and thrombin solutions on spleen wound, without polyP 12.3±1.0 minutes): 9.8 ± 1.0 min | appearance of fibrin seals formed on the wound surfaces (spleen surface wounds; fibrinogen with polyP versus without polyP (FIG. 7)): more opaque | mass-length ratio of fibrin fibrils compared to clots formed in the absence of polyP (fibrin fibrils [5]): more than three times larger

heparin [reference compound]
effect of added heparin on the polyP effect on turbidity [6]: did not reduce the effect of polyP on turbidity | magnitude of the turbidity increase relative to polyP ([1]; heparin 0 to 10 units/mL, data not shown): markedly lower than that observed with polyP | effect on fibrin turbidity ([1]; heparin examined from 0 to 10 units/mL, data not shown): increased fibrin turbidity in a dose-dependent fashion
